In data set [1] the test system is Human immunodeficiency virus 1. Put plainly: Antiviral activity against drug-resistant HIV-1 harboring RT K103N mutant infected in human MT4 cells assessed as protection against virus-induced cytopathicity measured after 5 days post-infection by MTT assay. The settings on record: Human immunodeficiency virus 1, MT4, 120 h. The format is functional, organism-based. (In general: Damage to the host cells serves as the signal in cytopathic effect assays.)

In data set [2] the test system is Human immunodeficiency virus 1. Kind of data set: Antiviral activity against drug-resistant HIV-1 harboring RT L100I mutant infected in human MT4 cells assessed as protection against virus-induced cytopathicity measured after 5 days post-infection by MTT assay. The settings on record: Human immunodeficiency virus 1, MT4, 120 h. Format: functional, organism-based.

In data set [3] the test system is Human immunodeficiency virus 1. Put plainly: Antiviral activity against drug-resistant HIV-1 harboring RT E138K mutant infected in human MT4 cells assessed as protection against virus-induced cytopathicity measured after 5 days post-infection by MTT assay. The note with it: Human immunodeficiency virus 1, MT4, 120 h. The format is functional, organism-based.
Data set [4] relates to Human immunodeficiency virus 1. Put plainly: Antiviral activity against wild-type HIV-1 IIIB infected in human MT4 cells assessed as protection against virus-induced cytopathicity measured after 5 days post-infection by MTT assay. Format: functional, organism-based. The note with it: Human immunodeficiency virus 1, IIIB, MT4, 120 h.
Data set [5] relates to Human immunodeficiency virus 1. Kind of data set: Antiviral activity against drug-resistant HIV-1 harboring RT F227L/V106A mutant infected in human MT4 cells assessed as protection against virus-induced cytopathicity measured after 5 days post-infection by MTT assay. Format: functional, organism-based. The note with it: Human immunodeficiency virus 1, MT4, 120 h.
For data set [6], the system named is Human immunodeficiency virus 1. Kind of data set: Antiviral activity against drug-resistant HIV-1 harboring RT Y181C mutant infected in human MT4 cells assessed as protection against virus-induced cytopathicity measured after 5 days post-infection by MTT assay. Format: functional, organism-based. The settings on record: Human immunodeficiency virus 1, MT4, 120 h.

The nature of data set [7]: Cytotoxicity against human MT4 cells assessed as reduction in cell viability by MTT assay. The format is toxicity, cell-based.
Data set [8] deals with Human immunodeficiency virus 1. Kind of data set: Antiviral activity against drug-resistant HIV-1 harboring RT RES056 mutant infected in human MT4 cells assessed as protection against virus-induced cytopathicity measured after 5 days post-infection by MTT assay. The format is functional, organism-based. The note with it: Human immunodeficiency virus 1, MT4, 120 h.
Data set [9] concerns the target Human immunodeficiency virus type 1 reverse transcriptase (Human immunodeficiency virus 1, UniProt Q72547). Kind of data set: Inhibition of recombinant wild type HIV-1 reverse transcriptase incubated for 40 mins in presence of poly(rA) template/oligo(dT)16 primer by Pico-Green dye based analysis.
Data set [10] can be described thus: Metabolic stability in human liver microsomes assessed as half life at 1 uM measured up to 45 mins by LC/MS/MS analysis. The settings on record: for half-life at 1 µM: liver microsomes. Format: ADME, Microsome. (In general: Microsomes from liver hold many membrane-bound enzymes, among them those of drug oxidation.)
Data set [11] concerns Human immunodeficiency virus 1. Put plainly: Antiviral activity against drug-resistant HIV-1 harboring RT Y188L mutant infected in human MT4 cells assessed as protection against virus-induced cytopathicity measured after 5 days post-infection by MTT assay. The note with it: Human immunodeficiency virus 1, MT4, 120 h. Format: functional, organism-based.
Data set [12] is described as follows: Stability in human plasma assessed as compound remaining at 1 uM measured immediately by LC-MS/MS analysis. The format is ADME, cell-free. The settings on record: read-out: Stability.
The nature of data set [13]: Stability in human plasma assessed as compound remaining at 1 uM measured after 3 hrs by LC-MS/MS analysis. The settings on record: read-out: Stability. The format is ADME, cell-free.
Data set [14] in a line: Protein binding in human plasma assessed as drug recovery rate at 1 uM incubated for 6 hrs. The format is ADME, cell-free. The settings on record: read-out: Drug recovery.
A short description of data set [15]: Selectivity index, ratio of CC50 for cytotoxicity against human MT4 cells to EC50 for antiviral activity against wild-type HIV-1 IIIB infected in human MT4 cells. The format is toxicity, cell-based. The note with it: read-out: Ratio CC50/EC50.
Data set [16] can be described thus: Solubility of compound at pH 7. Format: physicochemical. The note with it: buffer.
Data set [17] can be described thus: Drug metabolism in rat liver microsomes assessed as metabolic fraction at 1 uM measured up to 45 mins by LC/MS/MS analysis. Format: ADME, Microsome. The settings on record: 0.75 h.
Data set [18] in a line: Drug metabolism in dog liver microsomes assessed as metabolic fraction at 1 uM measured up to 45 mins by LC/MS/MS analysis. Format: ADME, Canis lupus familiaris, Microsome. The note with it: liver microsomes, read-out: Fm.
Data set [19] in a line: Metabolic stability in dog liver microsomes assessed as half life at 1 uM measured up to 45 mins by LC/MS/MS analysis. The format is ADME, Canis lupus familiaris, Microsome. The settings on record: liver microsomes.
Data set [20] can be described thus: Drug metabolism in human liver microsomes assessed as metabolic fraction at 1 uM measured up to 45 mins by LC/MS/MS analysis. The format is ADME, Microsome. The note with it: liver microsomes, read-out: Fm.
A short description of data set [21]: Metabolic stability in rat liver microsomes assessed as half life at 1 uM measured up to 45 mins by LC/MS/MS analysis. The settings on record: 0.75 h. Format: ADME, Microsome.

Structures are written as SMILES.

The results in this text go back to ChEMBL document CHEMBL6134848, “Deuteration Strategy-Inspired Design of Novel Diarylpyrimidine Derivatives as Potent Non-Nucleoside Reverse Transcriptase Inhibitors Featuring Improved Efficacy, Selectivity, and Druggability” (J Med Chem, 2025).

Consider `[2H]C([2H])([2H])c1cc(/C=C/C#N)cc(C)c1Nc1ccnc(Nc2ccc(C#N)cc2)n1`, for which the EC50 (commonly the concentration that produces a half-maximal response) in [1] is 1.96 nM; in data set [2], 2.3 nM; in data set [3], 4.6 nM; in [4] it was 1.17 nM; in data set [5] it was 69.8 nM; in data set [6] it was 2.71 nM. Besides, the concentration for a half-maximal effect (EC50) in data set [8] came out at 12.9 nM; in [11], 72.6 nM. In addition, in [7], the CC50 (as a rule, the concentration that lowers cell viability or growth by half) turned out to be 6560 nM. Moreover, the IC50 (usually the concentration at which inhibition is half-maximal) in data set [9] worked out at 30 nM. Further, the half-life (usually how long it takes for the measured level to halve) at 1 µM in data set [10] stood at 19.4 min.
Consider `CC[C@H](C)C(=O)O[C@H]1C[C@@H](C)C=C2C=C[C@H](C)[C@H](CC[C@@H]3C[C@@H](O)CC(=O)O3)[C@H]21` [LOVASTATIN], for which the remaining at 0 h, 1 µM in data set [12] came out at 100%. In addition, the remaining at 3 h, 1 µM in data set [13] came out at 33.3%.
Turning to `CC(=O)CC(c1ccccc1)c1c(O)c2ccccc2oc1=O` (stereo unspecified) [WARFARIN], in data set [14], the recovery at 6 h, 1 µM is 96.9%.
Regarding `[2H]C([2H])([2H])c1cc(-c2ccc(C#N)cc2)cc(C([2H])([2H])[2H])c1Nc1ccnc(Nc2ccc(C#N)cc2)n1`, the half-maximal effective concentration (EC50) stood at 2.9 nM in [1]; 2.72 nM in data set [2]; 8.93 nM in data set [3]; 1.83 nM in data set [4]; 697 nM in [5]; 7.57 nM in [6]. Further, the concentration for a half-maximal effect (EC50) was determined as 68.8 nM in data set [8] and 55.1 nM in data set [11]. In addition, the selectivity ratio in data set [15] worked out at 3260. Besides, the CC50 in [7] was determined as 5980 nM. Moreover, the half-maximal inhibitory concentration (IC50) in data set [9] came to 380 nM. The half-life at 1 µM in data set [10] was 16.7 min.
Turning to `[2H]C([2H])([2H])c1cc(-c2ccc(C#N)cc2)cc(C)c1Nc1ccnc(Nc2ccc(C#N)cc2)n1`, the concentration giving a half-maximal response (EC50) in [1] was 3.81 nM; in [2], 2.74 nM; in [3], 8.64 nM; in data set [4] it was 2.5 nM; in data set [5], 626 nM; in data set [6] it was 6.14 nM. Moreover, the EC50 turned out to be 58.6 nM in [8] and 57.5 nM in [11]. Also, the selectivity ratio in [15] amounted to 2370. Further, in data set [7], the CC50 was 5940 nM. For the same compound, the IC50 in data set [9] was determined as 380 nM. In data set [10], the half-life at 1 µM amounted to 16.6 min.
`Cc1cc(C#N)cc(C)c1Oc1nc(Nc2ccc(C#N)cc2)nc(N)c1Br` [ETRAVIRINE]: the figures for the concentration giving a half-maximal response (EC50) in [2], in [3] and in [8] were 4.22 nM, 10.3 nM and 36.5 nM, respectively. Besides, in [16], the solubility (in general, the dissolved amount per volume that the medium holds) was under 1 µg/mL. Besides, the 50% cytotoxic concentration (CC50) in data set [7] is over 4600 nM.
Turning to `[2H]C([2H])([2H])c1cc(/C=C/C#N)cc(C([2H])([2H])[2H])c1Nc1ccnc(Nc2ccc(C#N)cc2)n1`, the EC50 in data set [1] came out at 1.81 nM; in data set [2], 2.42 nM; in data set [3], 5.84 nM; in [4] it was 1.41 nM; in data set [5], 76.2 nM; in [6], 2.75 nM. The EC50 in data set [8] was 13.2 nM. The 50% cytotoxic concentration (CC50) in data set [7] was 6590 nM. Further, in [9], the 50% inhibitory concentration (IC50) amounted to 20 nM. The half-life at 1 µM in data set [10] is 22.8 min.
For the compound `Cc1cc(/C=C/C#N)cc(C)c1Nc1ccnc(Nc2ccc(C#N)cc2)n1` [RILPIVIRINE], the EC50 in data set [1] amounted to 0.89 nM; in [2] it was 2.05 nM; in [3], 3.14 nM; in data set [4], 1.27 nM; in data set [5], 50.8 nM; in [6] it was 2.66 nM. Besides, the EC50 in [8] stood at 12.4 nM; in [11], 54 nM. Moreover, the Fm in data set [17] stood at 13.3%. In addition, the results for the metabolised at 0.75 h, 1 µM in data set [18] and in [20] were 44.8% and 13%, respectively. Moreover, the CC50 in data set [7] was found to be 6800 nM. In data set [9], the concentration for half-maximal inhibition (IC50) amounted to 20 nM. Moreover, the half-life at 1 µM in data set [19] was 79.3 min; in data set [10], 16 min. The t1/2 in data set [10] (microsomes, 0.75 h, 1 µM) turned out to be 16 min; in [21], 7.3 min.
On to `[2H]C([2H])([2H])c1cc(C#N)cc(C([2H])([2H])[2H])c1Oc1nc(NC2CCN(Cc3ccc(S(N)(=O)=O)cc3)CC2)nc2scnc12`, for which the concentration giving a half-maximal response (EC50) in data set [1] turned out to be 2.2 nM; in data set [2], 10.8 nM; in [3] it was 10.3 nM; in data set [4] it was 2.16 nM; in data set [5], 46.4 nM; in data set [6], 8.05 nM. The values for the EC50 in [8] and in data set [11] were 86.4 nM and 46 nM, respectively. Further, the selectivity ratio in data set [15] amounted to 8290. The CC50 in data set [7] worked out at 17900 nM. In addition, the IC50 in data set [9] was 190 nM.
